Reference: ChEMBL document CHEMBL1131519, “1,2-Benzisothiazol-3-one 1,1-dioxide inhibitors of human mast cell tryptase” (J Med Chem, 1998)

Key:
Tryptase = Tryptase (Homo sapiens, UniProt Q9BZJ3+Q15661+Q9NRR2); assay: Inhibitory activity was measured against human mast cell tryptase.; format: protein assay
Coagulation factor X = Coagulation factor X (Homo sapiens, UniProt P00742); assay: Inhibitory activity was measured against Coagulation factor X
Neutrophil elastase = biological target: T1, Neutrophil elastase (Homo sapiens, UniProt P08246); assay: Inhibitory activity was measured against human leukocyte elastase.
T1 sequence (P08246 whole entry): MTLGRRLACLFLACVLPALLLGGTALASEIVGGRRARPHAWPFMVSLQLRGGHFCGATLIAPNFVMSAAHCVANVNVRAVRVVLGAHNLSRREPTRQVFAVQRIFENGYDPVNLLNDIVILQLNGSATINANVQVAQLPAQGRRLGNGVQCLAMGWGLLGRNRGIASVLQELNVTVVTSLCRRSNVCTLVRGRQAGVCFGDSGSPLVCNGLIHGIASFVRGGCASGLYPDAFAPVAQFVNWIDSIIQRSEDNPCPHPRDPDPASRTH

Plasminogen = Plasminogen (Homo sapiens, UniProt P00747); assay: Inhibitory activity was measured against plasmin.
Plasminogen, sequence (P00747 97-580 limits assumed): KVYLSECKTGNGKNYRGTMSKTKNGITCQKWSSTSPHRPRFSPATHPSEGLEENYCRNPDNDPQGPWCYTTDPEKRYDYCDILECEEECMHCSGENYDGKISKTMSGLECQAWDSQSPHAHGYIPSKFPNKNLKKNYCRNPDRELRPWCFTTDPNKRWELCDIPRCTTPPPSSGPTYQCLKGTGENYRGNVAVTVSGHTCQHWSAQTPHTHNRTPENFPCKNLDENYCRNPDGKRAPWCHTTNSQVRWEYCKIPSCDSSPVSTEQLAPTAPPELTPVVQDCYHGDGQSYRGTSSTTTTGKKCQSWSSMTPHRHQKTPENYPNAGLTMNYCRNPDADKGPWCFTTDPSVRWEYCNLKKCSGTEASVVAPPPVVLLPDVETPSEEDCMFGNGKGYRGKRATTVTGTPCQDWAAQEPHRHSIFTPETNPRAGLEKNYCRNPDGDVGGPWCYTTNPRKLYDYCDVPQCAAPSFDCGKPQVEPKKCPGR
Plasminogen, sequence (P00747 581-810 limits assumed): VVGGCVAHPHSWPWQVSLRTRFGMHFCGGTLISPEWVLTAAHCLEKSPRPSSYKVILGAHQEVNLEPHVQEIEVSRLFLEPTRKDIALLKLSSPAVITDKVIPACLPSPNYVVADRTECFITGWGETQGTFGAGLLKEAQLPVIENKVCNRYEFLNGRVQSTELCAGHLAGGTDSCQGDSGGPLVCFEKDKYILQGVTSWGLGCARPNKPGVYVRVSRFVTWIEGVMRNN

[1] = biological target: Urokinase-type plasminogen activator (Homo sapiens, UniProt P00749); assay: Inhibitory activity was measured against urokinase.
Prothrombin = Prothrombin (Homo sapiens, UniProt P00734); assay: Inhibitory activity was measured against thrombin.

Coagulation factor X, sequence (P00742 41-179 limits assumed): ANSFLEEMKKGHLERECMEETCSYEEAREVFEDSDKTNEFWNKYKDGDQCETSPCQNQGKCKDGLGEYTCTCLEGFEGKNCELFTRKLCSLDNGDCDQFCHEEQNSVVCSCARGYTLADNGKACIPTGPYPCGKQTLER
Coagulation factor X, sequence (P00742 235-488 limits assumed): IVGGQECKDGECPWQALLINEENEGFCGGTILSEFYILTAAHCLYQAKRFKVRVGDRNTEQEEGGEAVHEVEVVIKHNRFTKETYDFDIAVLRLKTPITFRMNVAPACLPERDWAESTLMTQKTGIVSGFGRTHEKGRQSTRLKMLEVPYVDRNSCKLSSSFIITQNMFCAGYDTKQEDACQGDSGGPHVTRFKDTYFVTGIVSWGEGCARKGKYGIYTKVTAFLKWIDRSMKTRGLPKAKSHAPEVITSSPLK

O=C(CCc1ccccc1)Nc1ccc(C(=O)OCN2C(=O)c3ccccc3S2(=O)=O)cc1
IC50 (Tryptase): 0.17 µM

O=C(CNC(=O)OCc1ccccc1)OCN1C(=O)c2ccccc2S1(=O)=O
IC50 (Tryptase): 6.94 µM

CC(C)(C)OC(=O)N[C@@H](CCCCNC(=O)OCc1ccccc1)C(=O)OCN1C(=O)c2ccccc2S1(=O)=O
IC50 (Tryptase): 0.352 µM

O=C(CCNC(=O)OCc1ccccc1)OCN1C(=O)c2ccccc2S1(=O)=O
IC50 (Coagulation factor X): > 33 µM
IC50 (Neutrophil elastase): 2.26 µM
IC50 (Plasminogen): > 33 µM
IC50 [1]: > 33 µM
IC50 (Tryptase): 0.854 µM
IC50 (Prothrombin): > 33 µM

CC(C)(C)OC(=O)N[C@H](CCCCNC(=O)OCc1ccccc1)C(=O)OCN1C(=O)c2ccccc2S1(=O)=O
IC50 (Tryptase): 12.2 µM

O=C(Nc1ccc(C(=O)OCN2C(=O)c3ccccc3S2(=O)=O)cc1)OCc1ccccc1
IC50 (Neutrophil elastase): 2.66 µM
IC50 (Tryptase): 0.0643 µM
IC50 (Prothrombin): > 33 µM

O=C(NCCc1ccccc1)c1ccc(C(=O)OCN2C(=O)c3ccccc3S2(=O)=O)cc1
IC50 (Tryptase): 0.679 µM

O=C(NCc1ccc(C(=O)OCN2C(=O)c3ccccc3S2(=O)=O)cc1)Nc1ccccc1
IC50 (Tryptase): 0.157 µM

O=C(OCN1C(=O)c2ccccc2S1(=O)=O)c1ccc(OCCOc2ccccc2)cc1
IC50 (Tryptase): > 33 µM

O=C(CCCNC(=O)OCc1ccccc1)OCN1C(=O)c2ccccc2S1(=O)=O
IC50 (Tryptase): 0.349 µM

O=C(NCc1ccc(C(=O)OCN2C(=O)c3ccccc3S2(=O)=O)cc1)OCc1ccccc1
IC50 (Tryptase): 0.352 µM

O=C(CCCCNC(=O)OCc1ccccc1)OCN1C(=O)c2ccccc2S1(=O)=O
IC50 (Coagulation factor X): > 33 µM
IC50 (Neutrophil elastase): 1.44 µM
IC50 (Plasminogen): 33 µM
IC50 [1]: > 33 µM
IC50 (Tryptase): 0.11 µM
IC50 (Prothrombin): > 33 µM

O=C(CCNC(=O)OCc1ccccc1)NCCC(=O)OCN1C(=O)c2ccccc2S1(=O)=O
IC50 (Tryptase): > 33 µM

O=C(NCc1ccc(C(=O)OCN2C(=O)c3ccccc3S2(=O)=O)cc1)Oc1ccccc1
IC50 (Tryptase): 0.63 µM

O=C(NCc1ccccc1)Nc1ccc(C(=O)OCN2C(=O)c3ccccc3S2(=O)=O)cc1
IC50 (Tryptase): 0.95 µM

CC(C)(C)OC(=O)NCCCCCC(=O)OCN1C(=O)c2ccccc2S1(=O)=O
IC50 (Tryptase): 5.37 µM

O=C(CCCCCNC(=O)OCc1ccccc1)OCN1C(=O)c2ccccc2S1(=O)=O
IC50 (Tryptase): 0.436 µM

O=C(Cc1ccccc1)NCc1ccc(C(=O)OCN2C(=O)c3ccccc3S2(=O)=O)cc1
IC50 (Tryptase): 0.132 µM

Nc1ccc(C(=O)OCN2C(=O)c3ccccc3S2(=O)=O)cc1
IC50 (Tryptase): > 33 µM

O=C(Nc1cccc(C(=O)OCN2C(=O)c3ccccc3S2(=O)=O)c1)OCc1ccccc1
IC50 (Tryptase): > 33 µM
